Experimental data from patent US9873680B2 (Gilead Sciences, Inc., priority 2014, dated 2018).
Where two headings read alike, the source gives them in different places.

Experiments:
HIV-IIIb = assay: Test A: Antiviral Assay in MT4 Cells; type: cell-based, HIV-1; settings: for inhibition at 2 µM: 2 μM drug concentration, read-out: Response at 2 μM (percent inhibition of virus-induced cell killing)
Description: Test A: Antiviral Assay in MT4 Cells
MT-4 cells were next mixed with HIV-IIIb at an m.o.i of 0.003 for 1 hour, after which time 35 μL of virus/cell mixture (2000 cells) was immediately added to each well containing 40 μL of diluted compound. The plates were then incubated at 37° C. for 5 days. After 5 days of incubation, 25 μl of 2× concentrated CellTiter-Glo™ Reagent (catalog #G7571, Promega Biosciences, Inc., Madison, Wis.) was added to each well containing MT-4 cells. Cell lysis was carried out by incubating at room temperature for 10 min and then chemiluminescence was read.

[1] = Test B: Cytotoxicity Assay; type: cell-based; settings: human, uninfected MT-4 cells, CellTiter-Glo
Description: Test B: Cytotoxicity Assay Compound cytotoxicity and the corresponding CC50 values was determined using the same protocol as described in the antiviral assay (Test A) except that uninfected cells were used.

[2] = Human immunodeficiency virus 1, MT4, 120 h, 0.2 μM drug concentration, MT-4 cells infected with HIV-IIIb, 5 days, values normalized to 100%, average over time, read-out: % inhibition at 0.2 μM (percent inhibition of virus-induced cell killing)
[3] = Human immunodeficiency virus 1, IIIB, MT4, 120 h, read-out: % inhibition at 0.2 μM (percent inhibition of virus-induced cell killing)
[4] = Human immunodeficiency virus 1, IIIB, MT4, 0.2 μM drug concentration, comparison with previously published compounds, read-out: Response at 0.2 μM (percent inhibition of virus-induced cell killing)
[5] = Human immunodeficiency virus 1, IIIB, MT4, comparison with previously published compounds

| Structure (SMILES) | inhibition at 0.2 µM (HIV-IIIb; [2]) | CC50 at 5 days [1] | inhibition at 0.2 µM (HIV-IIIb; [3]) | inhibition at 0.2 µM (HIV-IIIb; [4]) | inhibition at 2 µM (HIV-IIIb; [5]) |
| --- | --- | --- | --- | --- | --- |
| Cn1nc(N)c2cccc(-c3ccc(C#CC4(O)CCOCC4)nc3[C@H](Cc3cc(F)cc(F)c3)NC(=O)Cn3nc(C(F)(F)F)c4c3C(F)(F)[C@@H]3C[C@H]43)c21 [Compound 27, N—((S)-1-(3-(3-amino-1-methyl-1H-indazol-7-yl)-6-((4-hydroxytetrahydro-2H-pyran-4-yl)ethynyl)pyridin-2-yl)-2-(3,5-difluorophenyl)ethyl)-2-((3bS,4aR)-5,5-difluoro-3-(trifluoromethyl)-3b,4,4a,5-tetrahydro-1H-cyclopropa[3,4]cyclopenta[1,2-c]pyrazol-1-yl)acetamide] | 92% | 15.8 µM | – | – | – |
| Cn1nc(NS(C)(=O)=O)c2c(Cl)ccc(-c3ccc(C#CC4(O)CCC4)nc3[C@H](Cc3cc(F)cc(F)c3)NC(=O)Cn3nc(C(F)F)c4c3C(F)(F)[C@@H]3C[C@H]43)c21 [Compound 69, N—((S)-1-(3-(4-chloro-1-methyl-3-(methylsulfonamido)-1H-indazol-7-yl)-6-((1-hydroxycyclobutyl)ethynyl)pyridin-2-yl)-2-(3,5-difluorophenyl)ethyl)-2-((3bS,4aR)-3-(difluoromethyl)-5,5-difluoro-3b,4,4a,5-tetrahydro-1H-cyclopropa[3,4]cyclopenta[1,2-c]pyrazol-1-yl)acetamide] | 96% | 13.6 µM | – | – | – |
| Cn1nc(NS(C)(=O)=O)c2c(Cl)ccc(-c3ccc(-c4cnn(C5COC5)c4)nc3[C@H](Cc3cc(F)cc(F)c3)NC(=O)Cn3nc(C(F)(F)F)c4c3C(F)(F)[C@@H]3C[C@H]43)c21 [Compound 72, N—((S)-1-(3-(4-chloro-1-methyl-3-(methylsulfonamido)-1H-indazol-7-yl)-6-(1-(oxetan-3-yl)-1H-pyrazol-4-yl)pyridin-2-yl)-2-(3,5-difluorophenyl)ethyl)-2-((3bS,4aR)-5,5-difluoro-3-(trifluoromethyl)-3b,4,4a,5-tetrahydro-1H-cyclopropa[3,4]cyclopenta[1,2-c]pyrazol-1-yl)acetamide] | 93% | 50.3 µM | – | – | – |
| Cn1nc(NS(C)(=O)=O)c2cccc(-c3ccc(C#CC4(O)CCOC4)nc3[C@H](Cc3cc(F)cc(F)c3)NC(=O)Cn3nc(C(F)(F)F)c4c3C(F)(F)[C@@H]3C[C@H]43)c21 (stereo partly drawn) [Compound 30B, 2-((3bS,4aR)-5,5-difluoro-3-(trifluoromethyl)-3b,4,4a,5-tetrahydro-1H-cyclopropa[3,4]cyclopenta[1,2-c]pyrazol-1-yl)-N-((1S)-2-(3,5-difluorophenyl)-1-(6-((3-hydroxytetrahydrofuran-3-yl)ethynyl)-3-(1-methyl-3-(methylsulfonamido)-1H-indazol-7-yl)pyridin-2-yl)ethyl)acetamide] | 100% | 19.5 µM | – | – | – |
| Cn1nc(NS(C)(=O)=O)c2c(Cl)ccc(-c3ccc(C#CC4(O)CO[C@H]5OCC[C@H]54)nc3[C@H](Cc3cc(F)cc(F)c3)NC(=O)Cn3nc(C(F)F)c4c3C(F)(F)[C@@H]3C[C@H]43)c21 (stereo partly drawn) [Compound 52, N-((1S)-1-(3-(4-chloro-1-methyl-3-(methylsulfonamido)-1H-indazol-7-yl)-6-(((3aS,6aR)-3-hydroxyhexahydrofuro[2,3-b]furan-3-yl)ethynyl)pyridin-2-yl)-2-(3,5-difluorophenyl)ethyl)-2-((3bS,4aR)-3-(difluoromethyl)-5,5-difluoro-3b,4,4a,5-tetrahydro-1H-cyclopropa[3,4]cyclopenta[1,2-c]pyrazol-1-yl)acetamide] | 96% | 17.1 µM | – | – | – |
| Cn1nc(NS(C)(=O)=O)c2c(Cl)ccc(-c3cc(N)c(C#CC4(O)CC(F)(F)C4)nc3[C@H](Cc3cc(F)cc(F)c3)NC(=O)Cn3nc(C(F)(F)F)c4c3C(F)(F)[C@@H]3C[C@H]43)c21 [Compound 100, N—((S)-1-(5-amino-3-(4-chloro-1-methyl-3-(methylsulfonamido)-1H-indazol-7-yl)-6-((3,3-difluoro-1-hydroxycyclobutyl)ethynyl)pyridin-2-yl)-2-(3,5-difluorophenyl)ethyl)-2-((3bS,4aR)-5,5-difluoro-3-(trifluoromethyl)-3b,4,4a,5-tetrahydro-1H-cyclopropa[3,4]cyclopenta[1,2-c]pyrazol-1-yl)acetamide] | – | 8.2 µM | 87% | – | – |
| CC(C)(O)C#Cc1ccc(-c2ccc(F)c(C(N)=O)c2)c([C@H](Cc2cc(F)cc(F)c2)NC(=O)Cn2nc(C(F)(F)F)c3c2C(F)(F)[C@@H]2C[C@H]32)n1 [Compound 18, reference compound] | – | – | – | 96% | 96% |
| Cn1nc(NS(C)(=O)=O)c2c(Cl)ccc(-c3ccc(C#CC4(O)CO[C@H]5OCC[C@H]54)nc3[C@H](Cc3cc(F)cc(F)c3)NC(=O)Cn3nc(C(F)(F)F)c4c3C(F)(F)[C@@H]3C[C@H]43)c21 (stereo partly drawn) [Compound 50B, N-((1S)-1-(3-(4-chloro-1-methyl-3-(methylsulfonamido)-1H-indazol-7-yl)-6-(((3aS,6aR)-3-hydroxyhexahydrofuro[2,3-b]furan-3-yl)ethynyl)pyridin-2-yl)-2-(3,5-difluorophenyl)ethyl)-2-((3bS,4aR)-5,5-difluoro-3-(trifluoromethyl)-3b,4,4a,5-tetrahydro-1H-cyclopropa[3,4]cyclopenta[1,2-c]pyrazol-1-yl)acetamide] | 92% | 10 µM | – | – | – |
| Cn1nc(NS(C)(=O)=O)c2c(Cl)ccc(-c3ccc(C#CC4CC4)nc3[C@H](Cc3cc(F)cc(F)c3)NC(=O)Cn3nc(C(F)F)c4c3C(F)(F)[C@@H]3C[C@H]43)c21 [Compound 96, N—((S)-1-(3-(4-chloro-1-methyl-3-(methylsulfonamido)-1H-indazol-7-yl)-6-(cyclopropylethynyl)pyridin-2-yl)-2-(3,5-difluorophenyl)ethyl)-2-((3bS,4aR)-3-(difluoromethyl)-5,5-difluoro-3b,4,4a,5-tetrahydro-1H-cyclopropa[3,4]cyclopenta[1,2-c]pyrazol-1-yl)acetamide] | 82% | 20.1 µM | – | 82% | 82% |
| Cn1nc(NS(C)(=O)=O)c2c(Cl)ccc(-c3ccc(C#CC(C)(C)n4ccnc4)nc3[C@H](Cc3cc(F)cc(F)c3)NC(=O)Cn3nc(C(F)(F)F)c4c3C(F)(F)[C@@H]3C[C@H]43)c21 [Compound 79B, N—((S)-1-(6-(3-(1H-imidazol-1-yl)-3-methylbut-1-yn-1-yl)-3-(4-chloro-1-methyl-3-(methylsulfonamido)-1H-indazol-7-yl)pyridin-2-yl)-2-(3,5-difluorophenyl)ethyl)-2-((3bS,4aR)-5,5-difluoro-3-(trifluoromethyl)-3b,4,4a,5-tetrahydro-1H-cyclopropa[3,4]cyclopenta[1,2-c]pyrazol-1-yl)acetamide] | 93% | 11.5 µM | – | – | – |
| Cn1nc(NS(C)(=O)=O)c2c(Cl)ccc(-c3ccc(C#CC4(O)CC(F)(F)C4)nc3[C@H](Cc3cccc(F)c3)NC(=O)Cn3nc(C(F)(F)F)c4c3C(F)(F)[C@@H]3C[C@H]43)c21 [Compound 102, N—((S)-1-(3-(4-chloro-1-methyl-3-(methylsulfonamido)-1H-indazol-7-yl)-6-((3,3-difluoro-1-hydroxycyclobutyl)ethynyl)pyridin-2-yl)-2-(3-fluorophenyl)ethyl)-2-((3bS,4aR)-5,5-difluoro-3-(trifluoromethyl)-3b,4,4a,5-tetrahydro-1H-cyclopropa[3,4]cyclopenta[1,2-c]pyrazol-1-yl)acetamide] | 88% | 7.17 µM | – | – | – |
| CC(C)N1CCO[C@](C)(C#Cc2ccc(-c3ccc(Cl)c4c(NS(C)(=O)=O)nn(C)c34)c([C@H](Cc3cc(F)cc(F)c3)NC(=O)Cn3nc(C(F)F)c4c3C(F)(F)[C@@H]3C[C@H]43)n2)C1 [Compound 87, N—((S)-1-(3-(4-chloro-1-methyl-3-(methylsulfonamido)-1H-indazol-7-yl)-6-(((R)-4-isopropyl-2-methylmorpholin-2-yl)ethynyl)pyridin-2-yl)-2-(3,5-difluorophenyl)ethyl)-2-((3bS,4aR)-3-(difluoromethyl)-5,5-difluoro-3b,4,4a,5-tetrahydro-1H-cyclopropa[3,4]cyclopenta[1,2-c]pyrazol-1-yl)acetamide] | 100% | 19.5 µM | – | – | – |
| O=C(Cc1c[nH]c2ccc(O)cc12)N[C@@H](Cc1cc(F)cc(F)c1)c1ncccc1C#CC1CC1 [Compound 53, reference compound] | – | – | – | 0% | 33% |
| Cn1nc(NS(C)(=O)=O)c2c(Cl)ccc(-c3ccc(C#CC4(O)CC(F)(F)C4)nc3[C@H](Cc3cc(F)cc(F)c3)NC(=O)Cn3nc(C(F)F)c4c3C(F)(F)[C@@H]3C[C@H]43)c21 [Compound 95E, N—((S)-1-(3-(4-chloro-1-methyl-3-(methylsulfonamido)-1H-indazol-7-yl)-6-((3,3-difluoro-1-hydroxycyclobutyl)ethynyl)pyridin-2-yl)-2-(3,5-difluorophenyl)ethyl)-2-((3bS,4aR)-3-(difluoromethyl)-5,5-difluoro-3b,4,4a,5-tetrahydro-1H-cyclopropa[3,4]cyclopenta[1,2-c]pyrazol-1-yl)acetamide] | – | – | 96% | – | – |
